# How the values were obtained:
# C. parvum [1] = tested on: C. parvum; design: method as in Li et al., 2019; settings: reported value; ref Li et al., 2019; read-out: in vitro anti-Cryptosporidium EC50; cited from earlier work
# C. parvum [2] = test: In vivo efficacy in C. parvum-infected IFN-γ KO mice, fecal oocysts load by qPCR; design: species or system Cryptosporidium parvum; settings: paromomycin 1,000 mg/kg oral once daily from day 3 PI
# Description: (§1) Eight weeks old male interferon-gamma knockout (IFN-γ KO) mice (B6.129S7-Ifng^TM1Ts/J) were purchased from The Jackson Laboratory, United States, and allowed to quarantine and acclimatize for 1 week before the commencement of experiments. Before the start of the infection assays in mice, the tolerability of each inhibitor was determined by daily oral gavage with varying dosages (0–10 mg/kg mouse bodyweight) in groups of mice (n = 3 mice per group) for 8 days. During this period, mice were monitored daily for any changes in physical and mental activity, feeding, body weight, body temperature, fur condition, and body posture. […] Mice were divided into infected and uninfected groups (n = 3 mice per group) and each individual mouse was housed in a separate cage lined with sterile gauze bedding. Each mouse from the infected group was infected by oral gavage administration of 10^4 C. parvum AUCP-1 isolate oocysts suspended in 50 μl of PBS. Beginning day 3 PI, groups of mice were orally treated with CpPyK inhibitors (at the specified doses), sham (100 μl of 5% DMSO in PBS), or 1,000 mg/kg paromomycin (in sterile water) once daily for a total of 8 days. Fecal pellets were collected daily in individual sterile 15 ml tubes, and submerged in an equivalent volume of PBS containing a cocktail of penicillin (100 units/ml), streptomycin (100 μg/ml), chloramphenicol (34 μg/ml), and amphotericin (0.25 μg/ml), and stored at 4°C until use. Three independent replicate infection assays were performed. Mice were sacrificed at day 11 PI, and 5 cm of the distal small intestine just anterior to the cecum was resected and submerged in 10% neutral buffered formalin and submitted for histopathological processing in the Comparative Biosciences Histology Laboratory at the University of Illinois at Urbana-Champaign. Briefly, intestinal tissues preserved in 10% neutral buffered formalin were washed in 70% ethanol, embedded in paraffin, and sectioned transversely at a thickness of 5 μm. Sections were stained with hematoxylin and eosin. The slides were imaged using a Zeiss microscope fitted with a color camera.
# DNA was isolated from 250 mg of feces collected from individual mice using the QIAamp® PowerFecal® Pro DNA kit (Qiagen, United States) following the manufacturer’s protocol. Oocysts load per gram of feces was measured by quantitative real time PCR (qPCR) analysis of the Cp18s rRNA gene (GenBank accession number AF164102) using gene-specific primers: 5′-[…]-3′ (Forward) and 5′-[…]-3′ (Reverse), described previously ([Parr et al., 2007]). To generate a quantification standard curve, fecal samples were obtained from uninfected mice and spiked with 10^8 C. parvum oocysts per gram of feces, followed by isolation of DNA as described above. Ten-fold serial dilutions of the extracted DNA were made and used as quantification standards for qPCR. C. parvum oocysts load quantification for the test mice was performed using DNA samples from the infected feces. Each 20 μl qPCR reaction contained 10 μl of PowerUp™ SYBR™ Green Master Mix (Applied Biosystems, United States), 500 nM of each primer, and 2 μl of DNA template. After 2 min of initial denaturation at 95°C, 40 cycles of denaturation at 95°C for 15 sec and annealing/extension at 60°C for 1 min were performed in a 7500 Real-Time PCR System (Applied Biosystems, United States). The oocyst load per gram of feces was derived by the 7500-system software using the generated quantification standard curves (Supplementary Figure 1).
# C. parvum [3] = test: Histopathology of distal small intestine of C. parvum-infected IFN-γ KO mice; format: in vivo, Cryptosporidium parvum; settings: 1,000 mg/kg daily oral from day 3 PI, sacrificed day 11 PI
# Description: as §1
structure (smiles),measurement,setting,value
"NC[C@@H]1O[C@H](O[C@H]2[C@@H](O)[C@H](O[C@@H]3[C@@H](O)[C@H](N)C[C@H](N)[C@H]3O[C@H]3O[C@H](CO)[C@@H](O)[C@H](O)[C@H]3N)O[C@@H]2CO)[C@H](N)[C@@H](O)[C@@H]1O [Paromomycin, reference compound]",EC50,C. parvum [1],450 µM
same,oocysts load by day 9 PI vs other treatments and untreated group,C. parvum [2],significantly (P < 0.05) lower oocysts loads
same,"intestinal pathology (histology, distal small intestine)",C. parvum [3],notably reduced pathological changes

# From paper PMC8761912, “Cryptosporidium parvum Pyruvate Kinase Inhibitors With in vivo Anti-cryptosporidial Efficacy” (Frontiers in Microbiology, 2022)
